Values joined by “and” are separate entries in the source; they are usually repeats but may differ in a detail not shown here. Identical values can stand only once. Like-named read-outs stand apart in the source and are kept apart here.
Legend:
[1] = biological target: recombinant human His-tagged MDM2 protein (residues 1-118) (Homo sapiens (Human), UniProt Q00987); test: Fluorescence-polarization MDM2 binding assay (Example 2); settings: Table 2A; no unit in the cell (μM unless otherwise indicated)
Sequence of recombinant human His-tagged MDM2 protein (residues 1-118) (Q00987 1-118): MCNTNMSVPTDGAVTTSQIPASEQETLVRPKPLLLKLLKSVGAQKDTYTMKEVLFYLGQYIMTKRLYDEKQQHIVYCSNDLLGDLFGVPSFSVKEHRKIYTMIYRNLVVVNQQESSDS

Ly7 = test: Anti-proliferative ATP assay; format: cell-based; settings: GCB-DLBCL, p53 WT/MUT
Capan2 = test: Anti-proliferative ATP assay; format: cell-based; settings: Homo sapiens, Capan-2, pancreas, p53 —/—
U2OS = test: Anti-proliferative ATP assay; format: cell-based; settings: Homo sapiens, bone, p53 WT/WT
H1299 = test: Anti-proliferative ATP assay; format: cell-based; settings: Homo sapiens, NCI-H1299, lung, p53 —/—
RKO = test: Anti-proliferative ATP assay; format: cell-based; settings: Homo sapiens, colon, p53 WT/WT
JAR = test: Anti-proliferative ATP assay; format: cell-based; settings: placenta, p53 WT/WT, MDM2 amplified
CCF-STTG1 = test: Anti-proliferative ATP assay; format: cell-based; settings: Homo sapiens, CNS, p53 WT/WT, MDM2 amplified
MCF7 = test: Anti-proliferative ATP assay; format: cell-based; settings: Homo sapiens, breast, p53 WT/WT
RS4; 11 (p53 wt) [2] = settings: read-out: RS4, Four day treatment
RS4; 11 = test: Anti-proliferative ATP assay; format: cell-based; settings: Homo sapiens, ALL, p53 WT/WT
SNU-1 = test: Anti-proliferative ATP assay; format: cell-based; settings: Homo sapiens, SNU1, gastric, p53 WT/WT, KRAS mut
PC-3 (deleted p53) = test: Cell growth assay (WST-8); format: cell-based
Hs746T = test: Anti-proliferative ATP assay; format: cell-based; settings: Homo sapiens, gastric, Met amplified
EHEB = test: Anti-proliferative ATP assay; format: cell-based; settings: CLL, p53 WT/WT
LnCap = test: Anti-proliferative ATP assay; format: cell-based; settings: Homo sapiens, prostate, p53 WT/WT
MOLM13 = test: Anti-proliferative ATP assay; format: cell-based; settings: Homo sapiens, MOLM-13, AML, p53 WT/WT, FLT3-ITD
Procedure: The anti-proliferative IC50 was determined by ATP assay.

Rec1 = test: Anti-proliferative ATP assay; format: cell-based; settings: Homo sapiens, MCL, p53 WT/WT
HCT-116 (p53 wild-type) = test: Cell growth assay (WST-8); format: cell-based, human; settings: Homo sapiens
[3] = system: SJSA-1 (osteosarcoma) tumors; test: In vivo efficacy, SJSA-1 xenograft model; set-up: species or system mice; settings: single 200 mg/kg dose (QD1 treatment) versus QD7 treatment; FIG. 22
Procedure: A cell sample was mixed 1:1 with Trypan Blue (GIBCO™, Invitrogen Corp.) and counted on a hemocytometer to determine the number of live/dead cells. Cells were washed once with 1×PBS (GIBCO™, Invitrogen Corp.) and resuspended in PBS. […] Cells were injected s.c. into the flank region of each mouse using a 27 gauge needle. The size of tumors growing in the mice was measured in two dimensions using calipers. Tumor volume (mm^3)=(A×B^2)/2 where A and B are the tumor length and width (in mm), respectively. During treatment, tumor volume and body weight was measured three times a week. After the treatment was stopped, tumor volume (FIGS. 17, 20, 22, and 23) and body weight (FIGS. 18 and 21) was measured at least once a week. Mice were kept for an additional 60 days for further observation of tumor growth and toxicity. […] Before treatment began, tumors were allowed to grow to 60-140 mm^3 in volume, at which point the blood vessel supplies to the tumor should have been established. […] The Control group received vehicle alone (10% PEG 400:3% Cremophor:87% PBS).

DoHH2 = test: Anti-proliferative ATP assay; format: cell-based; settings: Homo sapiens, DOHH-2, GCB-DLBCL, p53 WT/WT, BCL2 overexpression
[4] = system: prostate cancer cell line 22Rv1; test: Growth inhibition assay (Celltiter-Glo), 22Rv1; format: cell-based; settings: Homo sapiens; 22Rv1; 96 h; 96-well format; read-out: IC50 growth inhibition
LNCAP (p53 wild-type) = test: Cell growth assay (WST-8); format: cell-based, human; settings: Homo sapiens, LNCaP
LY3 = test: Anti-proliferative ATP assay; format: cell-based; settings: ABC-DLBCL, p53 WT/WT
Y79 = test: Anti-proliferative ATP assay; format: cell-based; settings: Homo sapiens, retinoblastome, p53 WT/WT, Rb mutated
Ly10 = test: Anti-proliferative ATP assay; format: cell-based; settings: ABC-DLBCL, p53 WT/WT
Ku812 = test: Anti-proliferative ATP assay; format: cell-based; settings: Homo sapiens, CML-BC, p53 WT/WT
SR = test: Anti-proliferative ATP assay; format: cell-based; settings: Homo sapiens, lymphoma, p53 WT/WT
SNU-5 = test: Anti-proliferative ATP assay; format: cell-based; settings: Homo sapiens, gastric, Met amplified
H929 = test: Anti-proliferative ATP assay; format: cell-based; settings: Homo sapiens, NCI-H929, MM, p53 WT/WT
22RV1 = test: Anti-proliferative ATP assay; format: cell-based; settings: Homo sapiens, prostate, p53 WT/MUT
HCT116 = test: Anti-proliferative ATP assay; format: cell-based; settings: Homo sapiens, HCT-116, colon, p53 WT/WT
MKN45 = test: Anti-proliferative ATP assay; format: cell-based; settings: Homo sapiens, MKN-45, gastric, p53 WT/WT, Met amplified
SJSA1 = test: Anti-proliferative ATP assay; format: cell-based; settings: Homo sapiens, SJSA-1, bone, p53 WT/WT, MDM2 amplified
SJSA-1 (p53 wild-type) = test: Cell growth assay (WST-8); format: cell-based; settings: Homo sapiens
MV4; 11 = test: Anti-proliferative ATP assay; format: cell-based; settings: Homo sapiens, AML, p53 WT/WT, FLT3-ITD
HCT-116 (p53—/—) = test: Cell growth assay (WST-8); format: cell-based; settings: Homo sapiens, HCT-116, read-out: IC50 HCT-116 (p53—/—)
RS4; 11 (p53 wt) [5] = test: cells; settings: Homo sapiens, RS4-11, 96 h, read-out: RS4; 11 (p53 wt) IC50 (μM), Four day treatment
[6] = read-out: IC50 PC-3 (deleted p53)
[7] = HCT-116, read-out: IC50 HCT-116 (p53 wild-type)
[8] = read-out: IC50 LNCAP (p53 wild-type)
[9] = SJSA-1, read-out: IC50 SJSA-1 (p53 wild-type)

CC(C)(C)C[C@@H]1N[C@@H](C(=O)NC2CCC(O)CC2)[C@H](Cc2ccccc2)[C@]12C(=O)Nc1cc(Cl)ccc12 (single isomer, unassigned) [CB084-Isomer B]
IC50 [1]: > 5 µM

CN1[C@@H](CC(C)(C)C)[C@@]2(C(=O)Nc3cc(Cl)ccc32)[C@@H](c2cccc(Cl)c2F)[C@@H]1C(=O)N[C@H]1C[C@@](C)(O)C1 [C30201]
IC50 [1]: < 0.1 µM

O=C(NC1CCC(O)CC1)[C@@H]1N[C@@H](c2ccccc2)[C@@]2(C(=O)Nc3cc(Cl)ccc32)[C@H]1Cc1ccccc1 (single isomer, unassigned) [CB083-Isomer B]
IC50 [1]: > 5 µM

CC(C)(C)C[C@@H]1N[C@@H](C(=O)NC2CCC(O)CC2)[C@H](c2cccc(Cl)c2F)[C@]12C(=O)Nc1cc(Cl)ccc12 (stereo partly drawn) [MI-77301 (free amine)]
IC50 (Ly7): > 10000 nM | IC50 (Capan2): > 10000 nM | IC50 (U2OS): > 10000 nM | IC50 (H1299): > 10000 nM | IC50 (RKO): 480 nM | IC50 (JAR): 169 nM | IC50 (CCF-STTG1): 162 nM | IC50 (MCF7): 201 nM | IC50 (RS4; 11 (p53 wt) [2]): 102 nM and 81 nM | IC50 (RS4; 11): 28 nM | IC50 (SNU-1): 77 nM | IC50 (PC-3 (deleted p53); 96 h, read-out: IC50 PC-3 (deleted p53), Four day treatment): 8450 ± 350 nM | IC50 (Hs746T): 10000 nM | IC50 (EHEB): 70 nM | IC50 (LnCap): 50 nM | IC50 (MOLM13): 14.7 nM | IC50 (Rec1): 738 nM | IC50 (HCT-116 (p53 wild-type); HCT-116, 96 h, read-out: IC50 HCT-116 (p53 wild-type), Four day treatment): 33 ± 10 nM | antitumor efficacy (tumor volume) [3]: comparable efficacy to a continuous dosing regimen | IC50 (DoHH2): 39.3 nM | IC50 [4]: 100 to 500 nM | IC50 (LNCAP (p53 wild-type); 96 h, read-out: IC50 LNCAP (p53 wild-type), Four day treatment): 54 ± 8 nM | IC50 (LY3): 280 nM | IC50 (Y79): 430 nM | IC50 (Ly10): 90 nM | IC50 (Ku812): > 10000 nM | IC50 (SR): 14.9 nM | IC50 (SNU-5): > 10000 nM | IC50 (H929): 114 nM | IC50 (22RV1): 399 nM | IC50 (HCT116): 229 nM | IC50 (MKN45): > 10000 nM | IC50 (SJSA1): 145 nM | IC50 (SJSA-1 (p53 wild-type); SJSA-1, 96 h, read-out: IC50 SJSA-1 (p53 wild-type), Four day treatment): 58 ± 23 nM | IC50 (MV4; 11): 45.4 nM

CC(C)(C)C[C@@H]1N[C@@H](C(=O)N[C@H]2C[C@@](C)(O)C2)[C@H](c2cc(Cl)ccc2F)[C@]12C(=O)Nc1cc(Cl)ccc12 [C11701]
IC50 (HCT-116 (p53—/—)): 21800 nM | IC50 (PC-3 (deleted p53); [6]): 19600 nM | IC50 (HCT-116 (p53 wild-type); [7]): 1400 nM | IC50 (LNCAP (p53 wild-type); [8]): 1500 nM

CC(C)(C)C[C@H]1N[C@@H](C(=O)NC2CCC(O)CC2)[C@H](c2cccc(Cl)c2F)[C@@]12C(=O)Nc1cc(Cl)ccc12 (stereo partly drawn) [MI-773]
IC50 (PC-3 (deleted p53); [6]): 14700 nM | IC50 (HCT-116 (p53 wild-type); [7]): 58 nM | IC50 (LNCAP (p53 wild-type); [8]): 85 nM | IC50 (RS4; 11 (p53 wt) [5]): 0.13 µM | IC50 (SJSA-1 (p53 wild-type); [9]): 61 nM

CC(C)(C)C[C@H]1N[C@@H](C(=O)N[C@H]2C[C@](C)(O)C2)[C@H](c2cccc(Cl)c2F)[C@@]12C(=O)Nc1cc(Cl)ccc12 [MI-519-65]
IC50 (HCT-116 (p53 wild-type); [7]): < 3000 nM | IC50 (LNCAP (p53 wild-type); [8]): < 3000 nM | IC50 (SJSA-1 (p53 wild-type); [9]): < 3000 nM

O=C(NC1CCC(O)CC1)[C@@H]1N[C@@H](c2ccccc2)[C@@]2(C(=O)Nc3cc(Cl)ccc32)[C@H]1c1cccc(Cl)c1F (single isomer, unassigned) [CB087-Isomer B]
IC50 [1]: < 0.5 µM

— patent publication US8680132B2, “Spiro-oxindole MDM2 antagonists” (priority 2010, dated 2014)
